Where two headings read alike, the source gives them in different places.
Columns and labels:
SNB-19 = assay: NCI-60 growth inhibition: SNB-19 (CNS Cancer); assay type: cell-based, human; conditions: Homo sapiens
UACC-257 = assay: NCI-60 growth inhibition: UACC-257 (Melanoma); assay type: cell-based, human; conditions: Homo sapiens
SF-268 = assay: NCI-60 growth inhibition: SF-268 (CNS Cancer); assay type: cell-based, human; conditions: Homo sapiens
SK-MEL-28 = assay: NCI-60 growth inhibition: SK-MEL-28 (Melanoma); assay type: cell-based, human; conditions: Homo sapiens
MDA-MB-468 = assay: NCI-60 growth inhibition: MDA-MB-468 (Breast Cancer); assay type: cell-based, human; conditions: Homo sapiens; MDA-MB-468 (Breast Cancer); read-out: GI50
NCI-H23 = assay: NCI-60 growth inhibition: NCI-H23 (Non-Small-Cell Lung Cancer); assay type: cell-based, human; conditions: Homo sapiens
SK-MEL-2 = assay: NCI-60 growth inhibition: SK-MEL-2 (Melanoma); assay type: cell-based, human; conditions: Homo sapiens
SF-539 = assay: NCI-60 growth inhibition: SF-539 (CNS Cancer); assay type: cell-based, human; conditions: Homo sapiens
OVCAR-5 = assay: NCI-60 growth inhibition: OVCAR-5 (Ovarian Cancer); assay type: cell-based, human; conditions: Homo sapiens
TK-10 = assay: NCI-60 growth inhibition: TK-10 (Renal Cancer); assay type: cell-based, human; conditions: Homo sapiens
HL-60(TB) = assay: NCI-60 growth inhibition: HL-60(TB) (Leukemia); assay type: cell-based, human; conditions: Homo sapiens
MDA-MB-231/ATCC = assay: NCI-60 growth inhibition: MDA-MB-231/ATCC (Breast Cancer); assay type: cell-based, human; conditions: Homo sapiens
MALME-3M = assay: NCI-60 growth inhibition: MALME-3M (Melanoma); assay type: cell-based, human; conditions: Homo sapiens
UO-31 = assay: NCI-60 growth inhibition: UO-31 (Renal Cancer); assay type: cell-based, human; conditions: Homo sapiens
HCT-116 = assay: NCI-60 growth inhibition: HCT-116 (Colon Cancer); conditions: Homo sapiens, HCT-116
RXF 393 = assay: NCI-60 growth inhibition: RXF 393 (Renal Cancer); assay type: cell-based, human; conditions: Homo sapiens
HS 578T = assay: NCI-60 growth inhibition: HS 578T (Breast Cancer); assay type: cell-based, human; conditions: Homo sapiens
MOLT-4 = assay: NCI-60 growth inhibition: MOLT-4 (Leukemia); assay type: cell-based, human; conditions: Homo sapiens
ACHN = assay: NCI-60 growth inhibition: ACHN (Renal Cancer); assay type: cell-based, human; conditions: Homo sapiens
K-562 = assay: NCI-60 growth inhibition: K-562 (Leukemia); assay type: cell-based, human; conditions: Homo sapiens, K562
T-47D = assay: NCI-60 growth inhibition: T-47D (Breast Cancer); assay type: cell-based, human; conditions: Homo sapiens, T47D
MDA-MB-435 = assay: NCI-60 growth inhibition: MDA-MB-435 (Melanoma); assay type: cell-based, human; conditions: Homo sapiens
[1] = system: MV4-11 cell line (myelomonocytic leukemia); conditions: MV4-11 cells; for LD50, 7AAD (μM) 24 h / LD50, Alamar blue (μM) 24 h / LD50, YOPRO (μM) 24 h: MMB-TDZD analogs (Table 2); for LD50: values in text
COLO 205 = assay: NCI-60 growth inhibition: COLO 205 (Colon Cancer); assay type: cell-based, human; conditions: Homo sapiens
LOX IMVI = assay: NCI-60 growth inhibition: LOX IMVI (Melanoma); assay type: cell-based, human; conditions: Homo sapiens
BT-549 = assay: NCI-60 growth inhibition: BT-549 (Breast Cancer); assay type: cell-based, human; conditions: Homo sapiens
OVCAR-4 = assay: NCI-60 growth inhibition: OVCAR-4 (Ovarian Cancer); assay type: cell-based, human; conditions: Homo sapiens
PC-3 = assay: NCI-60 growth inhibition: PC-3 (Prostate Cancer); assay type: cell-based, human; conditions: Homo sapiens
786-0 = assay: NCI-60 growth inhibition: 786-0 (Renal Cancer); assay type: cell-based, human; conditions: Homo sapiens
RPMI-8226 = assay: NCI-60 growth inhibition: RPMI-8226 (Leukemia); assay type: cell-based, human; conditions: Homo sapiens
OVCAR-3 = assay: NCI-60 growth inhibition: OVCAR-3 (Ovarian Cancer); assay type: cell-based, human; conditions: Homo sapiens
DU-145 = assay: NCI-60 growth inhibition: DU-145 (Prostate Cancer); assay type: cell-based, human; conditions: Homo sapiens
IGROV1 = assay: NCI-60 growth inhibition: IGROV1 (Ovarian Cancer); assay type: cell-based, human; conditions: Homo sapiens, IGROV-1
CAKI-1 = assay: NCI-60 growth inhibition: CAKI-1 (Renal Cancer); assay type: cell-based, human; conditions: Homo sapiens
MCF7 = assay: NCI-60 growth inhibition: MCF7 (Breast Cancer); assay type: cell-based, human; conditions: Homo sapiens
UACC-62 = assay: NCI-60 growth inhibition: UACC-62 (Melanoma); assay type: cell-based, human; conditions: Homo sapiens
M14 = assay: NCI-60 growth inhibition: M14 (Melanoma); assay type: cell-based, human; conditions: Homo sapiens
HCT-15 = assay: NCI-60 growth inhibition: HCT-15 (Colon Cancer); assay type: cell-based, human; conditions: Homo sapiens
U251 = assay: NCI-60 growth inhibition: U251 (CNS Cancer); assay type: cell-based, human; conditions: Homo sapiens, U-251
CCRF-CEM = assay: NCI-60 growth inhibition: CCRF-CEM (Leukemia); assay type: cell-based, human; conditions: Homo sapiens
SR = assay: NCI-60 growth inhibition: SR (Leukemia); assay type: cell-based, human; conditions: Homo sapiens
HOP-92 = assay: NCI-60 growth inhibition: HOP-92 (Non-Small-Cell Lung Cancer); assay type: cell-based, human; conditions: Homo sapiens
SW-620 = assay: NCI-60 growth inhibition: SW-620 (Colon Cancer); assay type: cell-based, human; conditions: Homo sapiens
NCI-H522 = assay: NCI-60 growth inhibition: NCI-H522 (Non-Small-Cell Lung Cancer); conditions: Homo sapiens, NCI-H522
EKVX = assay: NCI-60 growth inhibition: EKVX (Non-Small-Cell Lung Cancer); assay type: cell-based, human; conditions: Homo sapiens
HT29 = assay: NCI-60 growth inhibition: HT29 (Colon Cancer); assay type: cell-based, human; conditions: Homo sapiens, HT-29
A498 = assay: NCI-60 growth inhibition: A498 (Renal Cancer); assay type: cell-based, human; conditions: Homo sapiens
[2] = system: human leukemia cell lines; assay: NCI-60 growth inhibition, leukemia cell lines; conditions: for GI50: Homo sapiens; for potency against leukemia cell lines (GI50 <1.0): NCI panel
NCI-H460 = assay: NCI-60 growth inhibition: NCI-H460 (Non-Small-Cell Lung Cancer); assay type: cell-based, human; conditions: Homo sapiens
OVCAR-8 = assay: NCI-60 growth inhibition: OVCAR-8 (Ovarian Cancer); assay type: cell-based, human; conditions: Homo sapiens
SN12C = assay: NCI-60 growth inhibition: SN12C (Renal Cancer); assay type: cell-based, human; conditions: Homo sapiens
SK-MEL-5 = assay: NCI-60 growth inhibition: SK-MEL-5 (Melanoma); assay type: cell-based, human; conditions: Homo sapiens

C=C1C(=O)O[C@H]2[C@H]1CC/C(COC(=O)NCc1ccc(Cn3c(=O)sn(CCCI)c3=O)cc1)=C\CC[C@@]1(C)O[C@@H]21 [BSK-259]
GI50 (SNB-19): 3.12 µM
GI50 (UACC-257): 1.79 µM
GI50 (SF-268): 2.54 µM
GI50 (SK-MEL-28): 1.92 µM
GI50 (MDA-MB-468): 1.54 µM
GI50 (NCI-H23): 2.11 µM
GI50 (SK-MEL-2): 2.42 µM
GI50 (SF-539): 1.71 µM
GI50 (OVCAR-5): 1.85 µM
GI50 (TK-10): 1.71 µM
GI50 (HL-60(TB); HL-60): 0.3 µM
GI50 (MDA-MB-231/ATCC): 1.75 µM
GI50 (MALME-3M): 1.39 µM
GI50 (UO-31): 1.52 µM
GI50 (HCT-116): 1.05 µM
GI50 (RXF 393): 1.52 µM
GI50 (HS 578T): 3.17 µM
GI50 (MOLT-4): 0.29 µM
GI50 (ACHN): 1.7 µM
GI50 (K-562): 0.34 µM
GI50 (T-47D): 1.79 µM
GI50 (MDA-MB-435): 1.68 µM
fold more cytotoxic than PTL [1]: 273 fold
fold more cytotoxic than TDZD-8 [1]: 329 fold
LD50, 7AAD (μM) 24 h [1]: 0.01 µM
LD50, Alamar blue (μM) 24 h [1]: 0.30 µM
LD50, YOPRO (μM) 24 h [1]: 0.01 µM
LD50 [1]: 10 nM
GI50 (COLO 205): 1.95 µM
GI50 (LOX IMVI): 1.4 µM
GI50 (BT-549): 1.38 µM
GI50 (OVCAR-4): 1.46 µM
GI50 (PC-3): 1.94 µM
GI50 (786-0): 1.68 µM
GI50 (RPMI-8226): 0.9 µM
GI50 (OVCAR-3): 1.19 µM
GI50 (DU-145): 1.73 µM
GI50 (IGROV1): 1.75 µM
GI50 (CAKI-1): 1.7 µM
GI50 (MCF7): 1.41 µM
GI50 (UACC-62): 1.41 µM
GI50 (M14): 1.74 µM
GI50 (HCT-15): 1.89 µM
GI50 (U251): 1.75 µM
GI50 (CCRF-CEM): 0.31 µM
GI50 (SR): 0.28 µM
GI50 (HOP-92): 1.22 µM
GI50 (SW-620): 1.4 µM
GI50 (NCI-H522): 1.07 µM
GI50 (EKVX): 2.09 µM
GI50 (HT29): 1.74 µM
GI50 (A498): 4.85 µM
GI50 [2]: 0.28 to 0.9 µM
potency against leukemia cell lines (GI50 <1.0) [2]: high potency against all 6 leukemia cell lines
GI50 (NCI-H460): 3.2 µM
GI50 (OVCAR-8): 3.04 µM
GI50 (SN12C): 1.57 µM
GI50 (SK-MEL-5): 1.91 µM

C=C1C(=O)O[C@H]2[C@H]1CC/C(COC(=O)NCc1ccc(Cn3c(=O)sn(CCCC)c3=O)cc1)=C\CC[C@@]1(C)O[C@@H]21 [BSK-230]
GI50 (SNB-19): 6.63 µM
GI50 (UACC-257): 2.03 µM
GI50 (SF-268): 4.28 µM
GI50 (SK-MEL-28): 1.8 µM
GI50 (MDA-MB-468): 1.73 µM
GI50 (NCI-H23): 4.19 µM
GI50 (SK-MEL-2): 4.53 µM
GI50 (SF-539): 1.68 µM
GI50 (OVCAR-5): 1.93 µM
GI50 (TK-10): 1.81 µM
GI50 (HL-60(TB); HL-60(TB) (Leukemia), read-out: GI50): 1.81 µM
GI50 (MDA-MB-231/ATCC): 1.8 µM
GI50 (MALME-3M): 1.6 µM
GI50 (UO-31): 1.45 µM
GI50 (HCT-116): 1.36 µM
GI50 (RXF 393): 1.57 µM
GI50 (HS 578T): 3.24 µM
GI50 (MOLT-4): 1.55 µM
GI50 (ACHN): 1.67 µM
GI50 (K-562): 0.89 µM
GI50 (T-47D): 2.04 µM
GI50 (MDA-MB-435): 1.65 µM
LD50, 7AAD (μM) 24 h [1]: 0.01 µM
LD50, Alamar blue (μM) 24 h [1]: 0.30 µM
LD50, YOPRO (μM) 24 h [1]: 0.02 µM
LD50 [1]: 20 nM
GI50 (COLO 205): 2 µM
GI50 (LOX IMVI): 1.65 µM
GI50 (BT-549): 1.56 µM
GI50 (OVCAR-4): 1.52 µM
GI50 (PC-3): 1.75 µM
GI50 (786-0): 2 µM
GI50 (RPMI-8226): 1.48 µM
GI50 (OVCAR-3): 1.59 µM
GI50 (DU-145): 1.81 µM
GI50 (IGROV1): 1.83 µM
GI50 (CAKI-1): 1.64 µM
GI50 (MCF7): 1.87 µM
GI50 (UACC-62): 1.62 µM
GI50 (M14): 1.45 µM
GI50 (HCT-15): 2.02 µM
GI50 (U251): 41.5 µM
GI50 (CCRF-CEM): 0.65 µM
GI50 (SR): 0.4 µM
GI50 (HOP-92): 1.29 µM
GI50 (SW-620): 1.51 µM
GI50 (NCI-H522): 1.19 µM
GI50 (EKVX): 3.32 µM
GI50 (HT29): 2.08 µM
GI50 (A498): 3.28 µM
GI50 [2]: 0.28 to 0.9 µM
potency against leukemia cell lines (GI50 <1.0) [2]: highly potent against 3 of the 6 leukemia cell lines
GI50 (NCI-H460): 5.92 µM
GI50 (OVCAR-8): 3.64 µM
GI50 (SN12C): 1.73 µM
GI50 (SK-MEL-5): 3.18 µM

From patent publication US20230125667A1, “NOVEL TDZD ANALOGS AS AGENTS THAT DELAY, PREVENT, OR REVERSE AGE-ASSOCIATED DISEASES AND AS ANTI-CANCER AND ANTILEUKEMIC AGENTS” (United States Government as represented by the Department …, priority 2020, published 2023)
